Several values for one entry are separate records, joined by “and”; a condition that tells them apart may be missing. Equal values may be shown once.
How the values were obtained:
mice fed with HFD = test: Serum and liver lipid levels of mice fed with HFD; assay type: in vivo; conditions: for HDL chol. / LDL chol. / TG / Tot. chol.: Dose 2.5 mg/kg (Table 2)
Protocol: (§1) During the 2 month experiments, mice fasted for one night before the experiment was changed from a standard diet (STD) to an HFD and then the mice were randomly divided into 13 groups, including a protection group, 2 control and 10 treatment groups. Six mice were used in each group. […] Liver from the protection group supplemented with KMUP-1 HCl (1 mg/kg/day) were used to determine the HMG CoA reductase expression. Each group of mice had free access to drinking water from week 1 to week 14. Tap water was used to normalize mineral nutrition.
Within 2 months, the 3 day food intake average for each animal was measured. The weight gain and plasma lipid levels of each group were determined and compared to the non-treatment control group. […] Agents used in the assays were obtained from Merck & Co. (Kenilworth, N.J., U.S.A.). Triglyceride (TG), total cholesterol, HDL cholesterol and LDL cholesterol in mouse serum were measured by methods used in the clinic. To measure the hepatic Triglyceride, isolated liver were cut into small chips.

PDE-5A = test: Expression of PDE-5A (Table 12); conditions: Control group 100 (%)
ROCK II [1] = test: Expression of ROCK II (Table 12); conditions: Control group 100 (%)
[2] = Body weight and food intake of mice fed with HFD; assay type: in vivo; conditions: HFD mice, 5 mg/kg p.o.
Protocol: as §1, with “In the experiment, C57BL/6J male mice (21-22 g), after fasting, were fed an HFD as a model of hyperlipidemia for 8 weeks. During” for “During”
Within 2 months, the 3 day food intake average for each animal was measured. The weight gain and plasma lipid levels of each group were determined and compared to the non-treatment control group. Mouse blood was collected during the daytime by cardiac puncture followed by centrifugation at 90×g (Benchtop Centrifuge, U.S.A.) to separate the serum, and frozen at −80° C., for biochemical analysis using a Hitachi Clinical Analyzer 7070 (Hitachi High-Technologies Co. Tokyo, Japan). Agents used in the assays were obtained from Merck & Co. (Kenilworth, N.J., U.S.A.). Triglyceride (TG), total cholesterol, HDL cholesterol and LDL cholesterol in mouse serum were measured by methods used in the clinic. To measure the hepatic Triglyceride, isolated liver were cut into small chips.

ROCK II [3] = test: ROCK II expression in HepG2 cells; assay type: cell-based
Protocol: (§2) The HepG2 hepatoma cell line was purchased from the American Type Culture Collection (ATCC, Manassas, Va., U.S.A.). Cells were cultured in Dulbecco's Modified Eagle's Medium (DMEM). […] Then the targeted drugs solution was incubated with the cells for 24 hours, followed by protein extraction. […] HepG2 cells were treated with various concentrations of targeted drugs for 24 hours. Reactions were terminated by washing twice with cold PBS, and the cells were then harvested. Proteins in the whole-cell lysate were homogenized in an ice-cold lysis buffer and a protease inhibitor (Sigma-Aldrich, St. Louis, Mo., U.S.A.). The homogenate was centrifuged at 90,000×g for 15 minutes at 4° C., and supernatant was recovered as the total cellular protein. Cytosolic and membrane fractions of HepG2 cells were prepared using a CNM (Cytosol Nuclear Membrane) compartmental protein extraction kit (BioChain Institute Inc., Hayward, Calif., U.S.A.) according to the manufacturer's instructions. All of the fractionated protein solutions were stored at -80° C. until analysis. To measure the expression levels of proteins by drugs, the total cell protein was extracted after incubation with treatments for 24 hours and then Western blotting analysis was performed as described previously.

ABCA1 = ABCA1 expression in HepG2 cells; assay type: cell-based; conditions: HepG2 cells, 10^−5 M, 24 hours; Control 100, Vehicle 110
Protocol: as §2, with “−80°” for “-80°”

PPARγ = PPARγ expression in HepG2 cells; assay type: cell-based; conditions: HepG2 cells; for PPARγ: Control 100
Protocol: as §2, with “−80°” for “-80°”

eNOS = test: Expression of eNOS (Table 12); conditions: Control group 100 (%)
HMG CoA reductase = HMG CoA reductase expression in HepG2 cells (Western blotting); assay type: cell-based; conditions: for HMGR (%): CTL 100
Protocol: The HepG2 hepatoma cell line was purchased from the American Type Culture Collection (ATCC, Manassas, Va., U.S.A.). Cells were cultured in Dulbecco's Modified Eagle's Medium (DMEM). The culture media was supplemented with 5% heat-inactivated FBS, penicillin (100 U/mL) and streptomycin (100 μg/mL). Cells were grown in a humidified atmosphere containing 5% CO2 at 37° C., in which the oxygen tension in the incubator was held at 140 mmHg (20% O2, v/v; normoxic conditions). […] Then the targeted drugs solution was incubated with the cells for 24 hours, followed by protein extraction. The targeted drugs were added to the […].
HepG2 cells were treated with various concentrations of targeted drugs for 24 hours. Reactions were terminated by washing twice with cold PBS, and the cells were then harvested. Proteins in the whole-cell lysate were homogenized in an ice-cold lysis buffer and a protease inhibitor (Sigma-Aldrich, St. Louis, Mo., U.S.A.). The homogenate was centrifuged at 90,000×g for 15 minutes at 4° C., and supernatant was recovered as the total cellular protein. Cytosolic and membrane fractions of HepG2 cells were prepared using a CNM (Cytosol Nuclear Membrane) compartmental protein extraction kit (BioChain Institute Inc., Hayward, Calif., U.S.A.) according to the manufacturer's instructions. All of the fractionated protein solutions were stored at −80° C. until analysis. To measure the expression levels of proteins by drugs, the total cell protein was extracted after incubation with treatments for 24 hours and then Western blotting analysis was performed as described previously.

With KMUP-1-DL-ascorbic acid [KMUP-1-VC] the HDL chol. (mice fed with HFD) was 97.3 ± 1.6 mg/dL, the LDL chol. (mice fed with HFD) was 16.5 ± 0.9 mg/dL and the TG (mice fed with HFD) was 78.2 ± 3.6 mg/dL. For the same compound, the Tot. chol. (mice fed with HFD) was 129.4 ± 1.4 mg/dL, the PDE-5A expression (PDE-5A) was 68.8 ± 5.3% and the “ROCK II expression” value (ROCK II [1]) was 40.8 ± 3.7%.

With `CCCc1nn(C)c2c(=O)nc(-c3cc(S(=O)(=O)N4CCN(C)CC4)ccc3OCC)[nH]c12` [SIDAF, 5-[2-ethoxy-5-(4-methylpiperazin-1-yl)-sulphonylphenyl]-1-methyl-3-propyl-4H-pyrazolo[4,3-d]pyrimidin-7-one, reference compound] the HDL cholesterol (mice fed with HFD; 5 mg/kg p.o.) was 103.2 ± 2.5 mg/dL, the LDL cholesterol (mice fed with HFD; 5 mg/kg p.o.) was 15.3 ± 1.3 mg/dL and the “TG in serum (Triacylglycerol)” value (mice fed with HFD; 5 mg/kg p.o.) was 82.7 ± 6.3 mg/dL. For the same compound, the TG of liver (mice fed with HFD; 5 mg/kg p.o.) was 34.5 ± 2.** mg/dl, the “Tot. chol. (total cholesterol)” value (mice fed with HFD; 5 mg/kg p.o.) was 133.7 ± 4.3 mg/dL and the “final BW (Body weight)” value [2] was 23.9 ± 0.9 g.

For `Nc1nc2c(nc(Sc3ccc(Cl)cc3)n2[C@@H]2O[C@@H]3CO[P@@](=O)(S)O[C@H]3[C@H]2O)c(=O)[nH]1` [Rp-8-pCPT-cGMPS, 8-(p-chloro-phenylthio)guanosine-3,5-monophosphorothioate, reference compound], the “ROCK II expression” value (ROCK II [3]; Rp-8-pCPT-cGMPS 10 μM alone, Control 100) was 320.

With `C[C@@H](N)[C@H]1CC[C@H](C(=O)Nc2ccncc2)CC1` [Y27632, reference compound] the ABCA1 expression (ABCA1) was 225, the “ROCK II expression” value (ROCK II [3]; 10^−5 M, 24 hours, Control 100, Vehicle 88) was 52 and the PPARγ expression (PPARγ; 10^−5 M, 24 hours, Control 100, Vehicle 260) was 550.

With `CC(C)=CCC/C(C)=C/CC/C(C)=C/CC/C(C)=C/COP(=O)(O)OP(=O)(O)O` [GGPP, Geranylgeranyl pyrophosphate, reference compound] the ROCKII (ROCK II [3]; GGPP (10 μM) alone, Control 100) was 150% and 220% and the PPARγ (PPARγ; GGPP (10 μM) alone) was 50%.

Compound “KMUP-1-sodium carboxyl methylcellulose [KMUP-1-CMC]” has an eNOS expression (eNOS) of 152.14 ± 6.3%, an HDL chol. (mice fed with HFD) of 108.4 ± 1.3 mg/dL and an LDL chol. (mice fed with HFD) of 16.4 ± 1.7 mg/dL. It also gave a TG (mice fed with HFD) of 83.2 ± 5.3 mg/dL, a Tot. chol. (mice fed with HFD) of 129.7 ± 1.6 mg/dL and a PDE-5A expression (PDE-5A) of 58.7 ± 3.5%. For the same compound, the “ROCK II expression” value (ROCK II [1]) was 38.6 ± 2.7%.

With `CC(O)(CCO)CC(=O)O` (stereo not drawn) [Mevalonate] the “HMGR (%)” value (HMG CoA reductase; Mevalonate 20 (μm)) was 110%, the “HMGR (%)” value (HMG CoA reductase; Mevalonate 40 (μm)) was 95% and the “HMGR (%)” value (HMG CoA reductase; Mevalonate 60 (μm)) was 55%. For the same compound, the “HMGR (%)” value (HMG CoA reductase; Mevalonate 80 (μm)) was 48%, the “HMGR (%)” value (HMG CoA reductase; Mevalonate 100 (μm)) was 13% and the “HMG CoA expression” value (HMG CoA reductase; Mevalonate (100 μM) alone, Control 100) was 20%.

With `CC(C)=CCC/C(C)=C/CC/C(C)=C/COP(=O)(O)OP(=O)(O)O` [FPP, Farnesyl pyrophosphate, reference compound] the ROCKII (ROCK II [3]; FPP (10 μM) alone, Control 100) was 118% and the PPARγ (PPARγ; FPP (10 μM) alone) was 64%.

— US20190008870A1, “COMPOSITIONS AND METHODS FOR LIPID METABOLISM DISORDER” (JANSFAT BIOTECHNOLOGY CO., LTD., priority 2016, published 2019)
